Like-named read-outs stand apart in the source and are kept apart here.
How the values were obtained:
Bevacizumab [1] = assay: Microtiter plate chromatography of resins, Bevacizumab whole IgG (bound, yield, selectivity); format: binding, humanized
Procedure: (§1) Resins were assessed in packed mode by microtiter plate chromatography. For each column, approximately 30 μl of resin were transferred to a 384-well filter plate and sealed with appropriate top frits.
(§2) Columns were equilibrated with 6.7 column volumes (cv) of phosphate buffered saline (0.15 M NaCl, 20 mM sodium phosphate, pH 7.3; PBS) prior to injection. Either 3.3 cv of whole IgGs dissolved at 0.75 mg ml^−1, Fab or Fc fragments dissolved at 0.25 mg ml^−1 (all three in PBS) or host cell proteins (HCP) were injected onto columns. Antibody fragments of Bevacizumab (Fab and Fc) were prepared by cleavage of whole IgG with papain protease (3) according to the protocol of the manufacturer. […] Volumes transferred were spun through columns at 50 g for 1-2 min. During injection of samples, acceleration was reduced to 10 g and centrifugation time increased to 5-10 min. Effluent fractions were collected in 384-well plates and concentrations of protein analyzed by Bradford assay. Protein masses mi, mft and me (see below) were calculated as the product of fraction volume and measured protein concentration.
(§3) The fraction of ‘bound’ protein was calculated as the difference between the total mass of protein injected mi and the mass of protein detected in the flowthrough mft, divided by the total mass of protein injected.
(§4) The ‘yield’ of protein was calculated as the mass of protein eluted me, divided by the mass of protein injected mi.
(§5) The ‘selectivity’ of resins was calculated as the fraction of bound antibody BAb, divided by the fraction of bound host cell proteins BHCP.
(§6) the fraction of ‘bound’ protein and the ‘yield’ of protein were calculated for each resin based on data for whole IgG-antibodies. In the case of Bevacizumab fragments and host cell proteins, only the fraction of ‘bound’ protein is given. Selectivity of resins was calculated from data for Bevacizumab Whole IgG and host cell proteins. Due to limited experimental precision, selectivity was truncated beyond values of 10.

Bevacizumab [2] = target: T1, Bevacizumab (Homo sapiens, UniProt P01857); assay: as above; format: binding, humanized; details: for Bevacizumab IgG Bound (%): fraction of whole IgG Bevacizumab bound to resin; for Bevacizumab IgG Yield (%): mass of whole IgG Bevacizumab eluted / mass injected
T1 construct: fused on or other part: humanised anti-VEGF-A VH domain N-terminal of the gamma-1 constant region (engineered, no UniProt entry)
Procedure: as §1, §2, §3, §4, §5, §6

Tocilizumab = assay: Microtiter plate chromatography of resins, Tocilizumab (bound, yield); format: binding, humanized
Procedure: as §1, §2, §3, §4, §6

host cell proteins (HCP) = assay: Microtiter plate chromatography of resins, host cell proteins (bound); format: binding, CHO; details: host cell proteins
Procedure: Flowthrough from protein A chromatography (referred to as host cell proteins) was derived from the supernatant of antibody-producing CHO cell culture in serum-free medium.
as §1, §2, §3, §6

Palivizumab = assay: Microtiter plate chromatography of resins, Palivizumab (bound, yield); format: binding, humanized
Procedure: as §1, §2, §3, §4, §6

[3] = system: human poly-IgG (h-poly-IgG); assay: Microtiter plate chromatography of resins, human poly-IgG (bound, yield); format: binding
Procedure: as §1, §2, §3, §4, §6

[4] = fraction of bound Bevacizumab whole IgG / fraction of bound HCP, truncated beyond values of 10

Structure (SMILES) | Selectivity (Bevacizumab [1]) | Bevacizumab IgG Bound (%) (Bevacizumab [2]) | Bevacizumab IgG Yield (%) (Bevacizumab [2]) | Tocilizumab Bound (%) (Tocilizumab) | Tocilizumab Yield (%) (Tocilizumab) | HCP Bound (%) (host cell proteins (HCP)) | Palivizumab Bound (%) (Palivizumab) | Palivizumab Yield (%) (Palivizumab) | h-poly-IgG Bound (%) [3] [%] | h-poly-IgG Yield (%) [3] [%] | Selectivity (Bevacizumab [1]; [4])
COc1ccc(NC(=O)c2nn(CC(O)CO)c3ccccc23)cc1C(=O)NCCCN (racemic) [Ligand L40, (RS)-5-[1-(2,3-Dihydroxy-1-propyl)indazol-3-ylcarboxamido]-2-methoxybenzoic acid (3-amino-1-propyl)amide] | 4.5 | 100 | 100 | 90 | 90 | 22 | 62 | 62 | 98 | 97 | 
COc1ccc(NC(=O)c2cc(-c3cc(C)sc3C)n(C)n2)cc1C(=O)NCCCN [Ligand L3, 5-[5-(2,5-Dimethyl-3-thienyl)-1-methylpyrazol-3-yl]carboxamido-2-methoxybenzoic acid N-(3-aminopropyl)amide] | 1.4 | 100 | 89 | 97 | 95 | 62 | 100 | 93 | 102 | 72 | 
COc1ccc(NC(=O)c2cc(-c3cccc(Cl)c3)n(C)n2)cc1C(=O)NCCCN [Ligand L7, 5-[5-(3-Chlorophenyl)-1-methylpyrazol-3-yl]carboxamido-2-methoxybenzoic acid N-(3-aminopropyl)amide] | 1.4 | 100 | 110 | 92 | 109 | 70 | 100 | 99 | 100 | 91 | 
Cc1c(NC(=O)c2cc(-c3cccs3)n(C)n2)cccc1C(=O)NCCCN [Ligand L9, 2-Methyl-3-[1-methyl-5-(2-thienyl)pyrazol-3-yl]carboxamidobenzoic acid N-(3-aminopropyl)amide] | 1.7 | 100 | 91 | 71 | 64 | 58 | 41 | 33 | 65 | 53 | 
Cc1ccc(C(=O)NCCCN)cc1NC(=O)c1cc(-c2cccs2)n(C)n1 [Ligand L10, 4-Methyl-3-[1-methyl-5-(2-thienyl)pyrazol-3-yl]carboxamidobenzoic acid N-(3-aminopropyl)amide] | 1.5 | 100 | 91 | 86 | 73 | 68 | 59 | 62 | 72 | 60 | 
COc1ccc(NC(=O)c2cncc(-c3ccccc3)c2)cc1C(=O)NCCCN [Ligand L11, 2-Methoxy-5-(3-phenylpyridin-5-yl)carboxamidobenzoic acid N-(3-aminopropyl)amide] | 1.7 | 95 | 94 | 100 | 89 | 56 | 78 | 75 | 89 | 79 | 
COc1ccc(NC(=O)c2cncc(-c3ccc(C(F)(F)F)cc3)c2)cc1C(=O)NCCCN [Ligand L12, 2-Methoxy-5-{3-[4-(trifluoromethyl)phenyl]pyridin-5-yl}carboxamidobenzoic acid N-(3-aminopropyl)amide] | 1.6 | 100 | 50 | 61 | 49 | 63 | 52 | 41 | 68 | 37 | 
COc1ccc(NC(=O)c2cn3ccsc3n2)cc1C(=O)NCCCC[C@H](NC(=O)c1cc(NC(=O)c2cn3ccsc3n2)ccc1OC)C(=O)NCCCN [Ligand L49, (S)-2,6-Bis[5-(Imidazo[2,1-b]thiazol-6-ylcarboxamido)-2-methoxyphenylcarboxamido]hexanoic acid (3-amino-1-propyl)amide] |  | 100 | 88 | 99 | 97 | 17 |  |  | 88 | 88 | 6.1
COc1ccc(NC(=O)c2cn3ccsc3n2)cc1C(=O)NCCOCCOCC(=O)NCCCC[C@H](NC(=O)COCCOCCNC(=O)c1cc(NC(=O)c2cn3ccsc3n2)ccc1OC)C(=O)NCCCN [Ligand L50, (S)-2,6-Bis{8-[5-(Imidazo[2,1-b]thiazol-6-ylcarboxamido)-2-methoxyphenylcarboxamido]-3,6-dioxaoctanoylamido}hexanoic acid (3-amino-1-propyl)amide] |  | 100 | 92 | 100 | 100 | 15 |  |  | 91 | 91 | 6.9
COc1ccc(NC(=O)c2nn(C)c3ccccc23)cc1C(=O)NCCOCCOCC(=O)NCCCN [Ligand L60, 8-[2-Methoxy-5-(1-methylindazol-3-ylcarboxamido)phenylcarboxamido]-3,6-dioxaoctanoic acid (3-amino-1-propyl)amide] | 3.3 | 100 | 82 | 93 | 93 | 30 |  |  | 95 | 94 | 
COc1ccc(NC(=O)c2cn3ccsc3n2)cc1C(=O)NCCCNC(=O)CC[C@H](N)C(=O)NCCCNC(=O)c1cc(NC(=O)c2cn3ccsc3n2)ccc1OC [Ligand L64, (S)-1-Aminopropane-1,3-dicarboxylic acid bis{3-[5-(imidazo[2,1-b]thiazol-6-ylcarboxamido)-2-methoxyphenylcarboxamido]propyl}amide] |  | 100 | 93 | 99 | 99 | 36 |  |  | 100 | 97 | 2.8
